In publication PMC6588613, “Lupin (Lupinus spp.) seeds exert anthelmintic activity associated with their alkaloid content” (Scientific Reports, 2019):
Values after ≈ are worked out from the molar mass of the structure shown. Like-named read-outs stand apart in the source and are kept apart here. Each block holds one compound with its values, some of them ahead of it.

Columns and labels:
[1] = biological target: C. elegans nicotine-sensitive AChR (Cel-N-AChR, acr-16) (Caenorhabditis elegans, UniProt P48180); test: Xenopus laevis oocyte two-electrode voltage-clamp, Cel-N-AChR; type: cell-based
From the text: (§1) The lupanine and alkaloid extracts from lupin seeds were perfused on defolliculated X. laevis oocytes (Ecocyte Bioscience, Dortmund, Germany) expressing either the C. elegans nicotine-sensitive nAChR subtype (Cel-N-nAChR, encoded by acr-16[53]), or its levamisole-sensitive counterpart (Cel-L-nAChR, encoded by unc-38, unc-63, unc-29, lev-1 and lev-8[53]). In the lack of H. contortus nicotine-sensitive AChR described, the sole levamisole-sensitive nAChR subtype 1 (Hco-L-nAChR1, encoded by unc-29.1, unc-38, unc-63 and acr-8[29]) from H. contortus was also expressed. Expression of recombinant nAChRs was achieved by microinjection of cRNAs into the oocyte cytoplasm and two-electrode voltage-clamp recordings were carried out as previously described.
Acetylcholine was applied first to check for the presence of functional nAChRs and for current normalization in presence of lupanine or alkaloid extracts.
(§2) Dose-response data were modelled as a log-logistic regression with two parameters, i.e. the curve slope and the associated median excitatory (EC50) or inhibitory (IC50) concentration using the drc package v3.0-1[58]. To account for differences in maximal response values, a third parameter was added for electrophysiology data modelling.

[2] = test system: multidrug-resistant H. contortus infective larvae; test: Automated Larval Migration Assay (ALMA), multidrug-resistant isolate; type: cell-based, Haemonchus contortus; conditions: 250 µg/mL, ± s.d.
Description: (§3) Because of the scarcity of fractionated alkaloidic compounds (2.7 to 12.8 mg), their anthelmintic effect on infective H. contortus larvae was measured using ALMA. This technique relies on larval auto-fluorescence generated through ultraviolet excitation[42],[43]. Every alkaloidic compound was incubated for 4 h at 20 °C with 7,500 H. contortus infective larvae each. Larvae were then passed through a 20 μm sieve and left for a 60 s stabilization time before migration into the spectrofluorimeter cuvette. Cumulative fluorescence resulting from larval migration into the cuvette and correlating the total number of larvae[43] was recorded during 5 min. Each set of experiment was performed in triplicate at a concentration of 250 µg/mL but for compound 2 (150 µg/mL). Levamisole 10 µM was used as a positive control.

[3] = test system: drug-susceptible H. contortus infective larvae; test: Automated Larval Migration Assay (ALMA), drug-susceptible isolate; type: cell-based, Haemonchus contortus; conditions: for larval migration as percentage of control larval migration (ALMA): drug-susceptible larvae, 250 µg/mL (compound 2: 150 µg/mL), 4 h, ± s.d.
From the text: Parasite material was maintained by the INRA animal parasite nematode collection. Two H. contortus isolates that were. susceptible or resistant to every licensed anthelmintic compound in France (benzimidazoles, levamisole, macrocyclic lactones) were used. […] To establish whether lupin effect was conserved across GIN species, a fully susceptible French T. circumcincta isolate[51] was used. […] For every test, infective larvae were exsheathed with 0.5% hypochlorite solution and rinsed thrice with water before subsequent incubation in 5 mg/mL solutions of either crude maceration, alkaloidic fraction or non-alkaloidic fraction, levamisole (10 µM) or water, for 18 h at 20 °C. At the end of the incubation period, 100 L3 were deposited on migration plates with 20 µm mesh at 38 °C for 2 h as described elsewhere. […] Dose-response assays were run with six control replicates and four replicates by concentration tested (0, 5, 7.5 and 10 mg/mL for E063 alkaloids and 0, 2, 4, 6 and 8 mg/mL for ENERGY alkaloids).
as §3

[4] = test system: mammalian nAChRs; conditions: cited from earlier work
[5] = test system: multidrug-resistant Haemonchus contortus infective larvae; test: Larval migration inhibition assay (LMIA), multidrug resistant isolate; type: cell-based; conditions: levamisole 10 µM
[6] = test system: fully susceptible H. contortus isolate
[7] = test system: multidrug resistant H. contortus isolate; test: In vitro drug susceptibility of the multidrug resistant isolate (assay not given); type: cell-based, Haemonchus contortus
[8] = test system: drug-susceptible Haemonchus contortus infective larvae; test: Larval migration inhibition assay (LMIA), fully susceptible isolate; type: cell-based
[9] = test system: fully susceptible French T. circumcincta isolate; test: microbe, parasite or virus in culture; conditions: Teladorsagia circumcincta, read-out: IC50 (ALMA)
[10] = test system: multidrug resistant H. contortus isolate; type: in vivo, Haemonchus contortus; conditions: for in vivo Faecal Egg Reduction Test value: 14 days after treatment; for eggs/g 14 days after treatment: before treatment 11400 (levamisole), 1450 (ivermectin)
[11] = test system: susceptible Teladorsagia circumcincta infective larvae; test: Larval migration inhibition assay (LMIA), T. circumcincta; type: cell-based; conditions: lyophilized extracts 5 mg/mL, levamisole 10 µM, read-out: Average inhibitory effect (mean)
[12] = biological target: H. contortus levamisole-sensitive AChR (Hco-L-AChR-1) (Haemonchus contortus, UniProt A9XX24+D6MYE9+D6MYF3+D6MYF4); test: Xenopus laevis oocyte two-electrode voltage-clamp, Hco-L-AChR-1; type: cell-based
From the text: as §1, §2

[13] = test system: C. elegans levamisole-sensitive AChR (Cel-L-AChR); test: Xenopus laevis oocyte two-electrode voltage-clamp, Cel-L-AChR; type: cell-based, Caenorhabditis elegans
From the text: as §1, §2

[14] = test system: susceptible control H. contortus; test: In vitro drug susceptibility of the susceptible control (assay not given); type: cell-based; conditions: Haemonchus contortus

C. elegans nicotine-sensitive AChR (Cel-N-AChR, acr-16), sequence (P48180 20-498): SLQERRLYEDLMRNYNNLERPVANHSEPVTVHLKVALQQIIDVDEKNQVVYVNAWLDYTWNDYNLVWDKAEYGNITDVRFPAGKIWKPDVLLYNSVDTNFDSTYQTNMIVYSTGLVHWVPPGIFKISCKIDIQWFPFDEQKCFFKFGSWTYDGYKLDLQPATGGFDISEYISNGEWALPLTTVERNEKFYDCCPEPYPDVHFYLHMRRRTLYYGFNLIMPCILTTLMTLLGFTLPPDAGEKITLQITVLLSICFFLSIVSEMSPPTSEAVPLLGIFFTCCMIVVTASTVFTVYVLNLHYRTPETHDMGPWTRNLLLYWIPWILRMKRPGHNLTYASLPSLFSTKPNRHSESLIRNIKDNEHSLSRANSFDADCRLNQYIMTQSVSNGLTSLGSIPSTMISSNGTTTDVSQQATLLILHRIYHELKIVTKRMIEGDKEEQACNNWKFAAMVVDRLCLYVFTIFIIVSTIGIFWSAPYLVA
C. elegans levamisole-sensitive AChR (Cel-L-AChR), sequence (Q27218 32-507): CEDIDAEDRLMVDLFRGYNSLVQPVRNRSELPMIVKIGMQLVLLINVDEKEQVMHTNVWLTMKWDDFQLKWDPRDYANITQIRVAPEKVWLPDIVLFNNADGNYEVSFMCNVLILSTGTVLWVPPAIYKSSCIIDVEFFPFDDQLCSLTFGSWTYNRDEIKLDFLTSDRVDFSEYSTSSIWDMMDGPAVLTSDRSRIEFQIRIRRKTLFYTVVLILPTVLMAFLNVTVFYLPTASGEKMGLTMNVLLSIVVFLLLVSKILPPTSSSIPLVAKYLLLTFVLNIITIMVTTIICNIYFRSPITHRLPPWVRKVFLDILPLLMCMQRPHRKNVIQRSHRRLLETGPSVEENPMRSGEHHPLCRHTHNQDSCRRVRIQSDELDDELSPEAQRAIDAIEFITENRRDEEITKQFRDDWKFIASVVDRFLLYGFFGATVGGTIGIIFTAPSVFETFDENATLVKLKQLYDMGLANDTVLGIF
C. elegans levamisole-sensitive AChR (Cel-L-AChR), sequence (P48181 27-493, further chain): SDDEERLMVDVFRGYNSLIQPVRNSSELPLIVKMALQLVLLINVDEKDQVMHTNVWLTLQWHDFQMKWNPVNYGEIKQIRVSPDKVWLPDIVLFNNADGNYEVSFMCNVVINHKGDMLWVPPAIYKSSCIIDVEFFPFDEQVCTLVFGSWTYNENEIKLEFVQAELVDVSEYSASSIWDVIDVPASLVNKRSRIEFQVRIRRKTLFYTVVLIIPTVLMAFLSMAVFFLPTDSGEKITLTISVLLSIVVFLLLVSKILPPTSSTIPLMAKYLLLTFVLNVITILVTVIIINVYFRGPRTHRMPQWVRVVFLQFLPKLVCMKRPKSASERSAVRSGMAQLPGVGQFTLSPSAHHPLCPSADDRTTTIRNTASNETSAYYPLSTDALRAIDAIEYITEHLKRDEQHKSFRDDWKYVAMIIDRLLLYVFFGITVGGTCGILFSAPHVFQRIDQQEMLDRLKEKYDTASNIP
C. elegans levamisole-sensitive AChR (Cel-L-AChR), sequence (Q23022 17-511, further chain): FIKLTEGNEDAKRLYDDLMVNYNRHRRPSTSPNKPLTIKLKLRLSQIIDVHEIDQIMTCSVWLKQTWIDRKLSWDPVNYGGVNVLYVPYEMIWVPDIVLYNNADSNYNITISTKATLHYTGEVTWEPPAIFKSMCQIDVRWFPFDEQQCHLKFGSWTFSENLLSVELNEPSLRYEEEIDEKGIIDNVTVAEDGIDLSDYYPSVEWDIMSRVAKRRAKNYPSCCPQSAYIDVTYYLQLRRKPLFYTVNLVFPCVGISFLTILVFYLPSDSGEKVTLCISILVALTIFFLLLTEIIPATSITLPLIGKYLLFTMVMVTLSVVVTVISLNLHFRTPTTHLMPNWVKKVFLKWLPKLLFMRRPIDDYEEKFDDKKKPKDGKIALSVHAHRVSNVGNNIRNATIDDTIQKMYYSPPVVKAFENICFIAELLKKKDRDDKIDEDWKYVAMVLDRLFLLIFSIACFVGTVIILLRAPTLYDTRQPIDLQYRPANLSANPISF
C. elegans levamisole-sensitive AChR (Cel-L-AChR), sequence (Q9N587 24-502, further chain): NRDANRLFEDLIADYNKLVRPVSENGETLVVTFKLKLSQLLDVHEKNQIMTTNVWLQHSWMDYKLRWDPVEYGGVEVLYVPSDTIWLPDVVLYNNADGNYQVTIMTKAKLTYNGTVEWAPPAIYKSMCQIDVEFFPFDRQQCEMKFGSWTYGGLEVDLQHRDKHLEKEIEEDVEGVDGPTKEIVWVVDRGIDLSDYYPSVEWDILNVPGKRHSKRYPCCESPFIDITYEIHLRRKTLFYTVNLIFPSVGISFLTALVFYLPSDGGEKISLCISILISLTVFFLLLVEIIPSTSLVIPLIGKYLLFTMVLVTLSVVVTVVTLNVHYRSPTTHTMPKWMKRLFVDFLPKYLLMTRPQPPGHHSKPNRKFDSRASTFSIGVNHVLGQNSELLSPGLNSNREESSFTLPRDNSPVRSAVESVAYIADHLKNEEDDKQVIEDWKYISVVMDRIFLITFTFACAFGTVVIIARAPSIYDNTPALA
C. elegans levamisole-sensitive AChR (Cel-L-AChR), sequence (Q93329 entry or part of it, further chain): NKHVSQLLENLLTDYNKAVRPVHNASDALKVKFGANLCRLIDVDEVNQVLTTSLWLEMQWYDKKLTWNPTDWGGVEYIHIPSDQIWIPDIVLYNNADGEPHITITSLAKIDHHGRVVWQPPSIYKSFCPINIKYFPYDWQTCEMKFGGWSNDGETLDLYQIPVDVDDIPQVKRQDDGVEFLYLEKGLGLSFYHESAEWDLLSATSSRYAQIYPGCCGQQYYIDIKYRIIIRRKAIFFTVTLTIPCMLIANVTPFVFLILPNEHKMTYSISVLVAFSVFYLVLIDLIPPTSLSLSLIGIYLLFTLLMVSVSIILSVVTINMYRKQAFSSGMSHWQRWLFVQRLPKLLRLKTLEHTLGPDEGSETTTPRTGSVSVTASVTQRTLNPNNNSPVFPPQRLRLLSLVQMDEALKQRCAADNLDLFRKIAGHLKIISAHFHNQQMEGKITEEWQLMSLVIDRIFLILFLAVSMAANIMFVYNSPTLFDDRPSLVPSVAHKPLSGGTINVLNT
H. contortus levamisole-sensitive AChR (Hco-L-AChR-1), sequence (D6MYE9 entry or part of it): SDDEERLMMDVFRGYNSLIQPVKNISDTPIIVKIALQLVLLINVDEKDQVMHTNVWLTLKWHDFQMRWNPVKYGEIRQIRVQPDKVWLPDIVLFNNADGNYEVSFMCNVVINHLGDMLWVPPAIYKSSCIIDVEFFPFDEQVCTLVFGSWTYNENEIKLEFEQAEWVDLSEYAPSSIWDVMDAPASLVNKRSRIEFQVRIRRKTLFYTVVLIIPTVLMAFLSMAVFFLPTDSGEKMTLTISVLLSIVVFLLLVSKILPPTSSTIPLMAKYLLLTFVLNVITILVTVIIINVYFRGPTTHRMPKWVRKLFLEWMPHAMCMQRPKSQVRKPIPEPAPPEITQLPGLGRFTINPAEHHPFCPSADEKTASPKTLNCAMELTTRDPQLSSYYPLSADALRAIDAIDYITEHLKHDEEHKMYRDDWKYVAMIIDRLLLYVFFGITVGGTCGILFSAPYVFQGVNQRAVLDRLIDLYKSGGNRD
H. contortus levamisole-sensitive AChR (Hco-L-AChR-1), sequence (D6MYF4 entry or part of it): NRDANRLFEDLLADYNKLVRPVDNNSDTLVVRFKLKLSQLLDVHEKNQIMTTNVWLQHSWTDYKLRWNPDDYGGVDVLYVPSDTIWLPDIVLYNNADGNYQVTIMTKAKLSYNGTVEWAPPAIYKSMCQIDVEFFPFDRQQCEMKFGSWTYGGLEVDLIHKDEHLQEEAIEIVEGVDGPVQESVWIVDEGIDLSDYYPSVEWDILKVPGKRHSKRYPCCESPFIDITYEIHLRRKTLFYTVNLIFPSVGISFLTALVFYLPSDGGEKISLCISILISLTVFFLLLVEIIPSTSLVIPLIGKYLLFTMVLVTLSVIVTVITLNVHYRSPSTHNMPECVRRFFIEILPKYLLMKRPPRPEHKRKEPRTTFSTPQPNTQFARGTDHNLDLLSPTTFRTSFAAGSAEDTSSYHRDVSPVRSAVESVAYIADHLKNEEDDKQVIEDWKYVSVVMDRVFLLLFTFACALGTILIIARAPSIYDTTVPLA
H. contortus levamisole-sensitive AChR (Hco-L-AChR-1), sequence (A9XX24 entry or part of it): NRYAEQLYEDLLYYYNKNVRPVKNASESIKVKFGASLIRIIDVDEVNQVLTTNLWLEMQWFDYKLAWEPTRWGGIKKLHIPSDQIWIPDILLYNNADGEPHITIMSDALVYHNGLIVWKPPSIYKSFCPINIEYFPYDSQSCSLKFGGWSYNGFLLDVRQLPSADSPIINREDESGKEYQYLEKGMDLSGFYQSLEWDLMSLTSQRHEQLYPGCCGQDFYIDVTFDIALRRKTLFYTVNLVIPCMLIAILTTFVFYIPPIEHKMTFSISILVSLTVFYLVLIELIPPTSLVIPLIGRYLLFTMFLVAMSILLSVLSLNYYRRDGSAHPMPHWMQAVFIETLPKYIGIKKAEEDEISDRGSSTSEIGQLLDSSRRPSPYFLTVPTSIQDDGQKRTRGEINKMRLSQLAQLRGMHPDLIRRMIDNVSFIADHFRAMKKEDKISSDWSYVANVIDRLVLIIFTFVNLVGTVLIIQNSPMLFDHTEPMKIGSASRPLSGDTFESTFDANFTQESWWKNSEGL
H. contortus levamisole-sensitive AChR (Hco-L-AChR-1), sequence (D6MYF3 entry or part of it): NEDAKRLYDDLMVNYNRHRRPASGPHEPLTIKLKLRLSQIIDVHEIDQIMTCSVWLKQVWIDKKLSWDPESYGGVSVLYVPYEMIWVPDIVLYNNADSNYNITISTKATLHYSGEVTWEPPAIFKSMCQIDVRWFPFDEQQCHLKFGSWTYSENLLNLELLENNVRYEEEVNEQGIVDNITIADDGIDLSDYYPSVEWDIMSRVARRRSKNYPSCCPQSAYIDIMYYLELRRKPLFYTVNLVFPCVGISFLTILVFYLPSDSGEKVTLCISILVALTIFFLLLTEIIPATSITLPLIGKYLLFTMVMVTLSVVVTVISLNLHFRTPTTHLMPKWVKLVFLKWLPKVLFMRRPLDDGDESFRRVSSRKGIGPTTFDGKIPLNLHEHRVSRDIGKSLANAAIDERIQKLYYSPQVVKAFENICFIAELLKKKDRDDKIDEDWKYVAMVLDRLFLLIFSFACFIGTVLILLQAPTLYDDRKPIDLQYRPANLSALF

Compound: CC(=O)OCC[N+](C)(C)C [Acetylcholine, acetylcholine]
EC50 ([1]; EC50, acetylcholine alone): 21.7 ± 0.9 µM
EC50 ([1]; EC50 of acetylcholine with lupanine (300 µM), in the presence of 300 µM lupanine): 80.6 ± 27.5 µM

Compound: CC=C(C)C(=O)OC1CCN2C[C@@H]3C[C@@H](CN4C(=O)CCC[C@H]34)[C@@H]2C1 (stereo partly shown) [Compound 1, 13-angeloyloxy or 13-tigloyloxy-lupanine]
larval migration as percentage of control (ALMA) [2]: 62.4%
larval migration as percentage of control larval migration (ALMA) [3]: 53.6%

Compound: O[C@@]12C[C@@H](CN3CCCC[C@H]31)[C@H]1CCCCN1C2 [Compound 4, 7-hydroxysparteine]
larval migration as percentage of control larval migration (ALMA) [3]: 76%

Compound: CC=C(C)C(=O)O[C@H]1CCN2C(=O)[C@@H]3C[C@@H](CN4C(=O)CCC[C@H]34)[C@@H]2C1 [Compound 5]
larval migration as percentage of control larval migration (ALMA) [3]: did not significantly inhibit

Compound: O=C(OC1CCN2C[C@@H]3C[C@@H](CN4C(=O)CCC[C@H]34)[C@@H]2C1)c1ccccc1 (stereo partly shown) [Compound 6]
larval migration as percentage of control larval migration (ALMA) [3]: did not significantly inhibit

Compound: O=c1cccc2n1C[C@@H]1CNC[C@H]2C1 [cytisine]
IC50 [4]: 0.14 µM

EC50 ([7]; Haemonchus contortus): 15.6 µM
IC50 [9]: 1.79 µM
Compound: c1ccc([C@H]2CN3CCSC3=N2)cc1 [levamisole]
inhibition at 10 µM ([5]; Haemonchus contortus, H. contortus multidrug resistant, lyophilized extracts 5 mg/mL, read-out: Average inhibitory effect): 30.5%
Percentage of migrating larvae ([5]; multidrug-resistant isolate, fractions 2.5 mg/mL, fractions 1 and 8 0.625 mg/mL, negative control 100): 39.7%
Faecal Egg Count reduction in vivo [6]: 100%
inhibition at 10 µM ([8]; Haemonchus contortus, H. contortus drug susceptible, lyophilized extracts 5 mg/mL, levamisole 10 µM, read-out: Average inhibitory effect): 99.5%
IC50 ([8]; Haemonchus contortus, concentration response assay, susceptible H. contortus isolate): 1.61 µM
inhibition at 10 µM ([8]; Haemonchus contortus, susceptible H. contortus L3, levamisole 10 µM, extract 5 mg/mL, estimate ± s.e.m., read-out: mean inhibition of larval migration): 99.3%
Percentage of migrating larvae ([8]; fully susceptible isolate, fractions 2.5 mg/mL, fractions 1 and 8 0.625 mg/mL, levamisole 10 µM, negative control 100): 12.1%
in vivo Faecal Egg Reduction Test value [10]: 31.6%
eggs/g 14 days after treatment [10]: 7800 eggs/g
inhibition at 10 µM [11]: 73.7%
EC50 ([3]; Haemonchus contortus, fully susceptible isolate, read-out: in vitro EC50 (Automated Larval Migration inhibition Assay)): 1.1 µM

Compound: O=C1CCC[C@@H]2[C@H]3C[C@@H](CN12)[C@@H]1CCCCN1C3 [lupanine]
IC50 ([12]; Hco-L-AChR-1, n = 5, read-out: IC50 on ACh-elicited currents): 540 ± 90.2 µM
inhibition at 300 µM ([12]; read-out: decrease in maximal ACh-elicited current): 38%
decrease in maximal ACh-elicited current ([13]; 300 µM lupanine, levamisole-sensitive receptors): 38%
IC50 ([13]; read-out: IC50 on ACh-elicited currents, Cel-L-AChR, n = 5): 549 ± 64.1 µM
inhibition of the control migration ([8]; concentration response assay, 0 to 3 mM, susceptible isolate, linear, highly variable): less than 25%
IC50 [4]: 5 µM
drop-off in the maximum amplitude of ACh-elicited currents ([1]; 300 µM lupanine): 81%
IC50 ([1]; n = 5, read-out: IC50 on ACh-elicited currents): 116 ± 9.7 µM

EC50 ([7]; Haemonchus contortus): 0.587 µg/mL
EC50 [14]: 0.022 µg/mL (≈ 0.0612 µM)
Compound: CSc1nc2cc(Cl)c(Oc3cccc(Cl)c3Cl)cc2[nH]1 [triclabendazole]

Compound: ivermectin
EC50 [7]: 0.055 µM
in vivo Faecal Egg Reduction Test value [10]: 67.8%
eggs/g 14 days after treatment [10]: 450 eggs/g
